The subject of one test is HCV replicon. Kind of test: HCV replicon FRET assay. Particulars: Hepatitis C virus, Table 1b; FRET assay; read-out: EC50*. Format: cell-based. An outline of the steps: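 HCV replicon cells, with or without Renilla luciferase reporter, incubated with titrated compounds at 37 °C; Alamar blue read for cytotoxicity. NS3 protease activity read from lysates with 20 μM EDANS/DABCYL FRET peptide (340/490 nm, kinetic), or by Dual-Glo luciferase. Background from highest protease-inhibitor wells; EC50 = 50% signal reduction.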

The target in another test is T1, HCV NS5B (Hepatitis C virus genotype 1b, UniProt Q9WMX2).
T1 construct: The protein was expressed with an 18 amino acid C-terminal truncation to enhance the solubility; made in house; host or cells: E. coli BL21 (DE3), pET21a
T1 sequence (Q9WMX2 2420-2992): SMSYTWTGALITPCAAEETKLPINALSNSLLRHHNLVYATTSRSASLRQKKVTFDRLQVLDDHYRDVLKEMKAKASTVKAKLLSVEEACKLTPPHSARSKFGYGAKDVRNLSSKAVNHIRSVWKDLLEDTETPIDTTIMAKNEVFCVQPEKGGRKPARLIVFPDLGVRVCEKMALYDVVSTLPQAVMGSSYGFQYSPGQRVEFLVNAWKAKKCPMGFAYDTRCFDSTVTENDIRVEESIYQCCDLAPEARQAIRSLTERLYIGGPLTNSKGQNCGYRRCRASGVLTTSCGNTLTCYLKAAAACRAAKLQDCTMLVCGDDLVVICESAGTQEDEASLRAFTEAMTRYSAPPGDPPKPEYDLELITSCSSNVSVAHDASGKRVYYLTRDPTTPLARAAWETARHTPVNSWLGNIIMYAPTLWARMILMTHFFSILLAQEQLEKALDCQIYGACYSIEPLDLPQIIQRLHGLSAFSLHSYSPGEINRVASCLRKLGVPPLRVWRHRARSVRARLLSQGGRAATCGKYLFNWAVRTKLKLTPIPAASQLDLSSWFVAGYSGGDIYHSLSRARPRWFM
Kind of test: HCV NS5B RdRp enzyme assay (preincubation protocol). Format: biochemical. Particulars: Table 1b, read-out: IC50*. An outline of the steps:
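Preincubation format: enzyme (14 nM, genotype 1b, 18-residue C-terminal truncation) meets diluted compound first; reaction started with bead-bound biotinylated dT12 primer, polyA template 0.2 nM and 0.29 μM 3H-UTP. Run 4 h, 30 °C in Hepes pH 7.5; scintillation proximity signal; IC50 fitted from seven inhibitor levels.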

The values below come from patent publication US7473688B2, “Indolobenzazepine HCV NS5B inhibitors” (Bristol-Myers Squibb Company, priority 2005, dated 2009).

For the compound `COc1ccc2c(c1)C=C(C(=O)N(C)[C@H](C(=O)N(C)C)C(C)C)Cn1c-2c(C2CCCCC2)c2ccc(C(=O)NS(=O)(=O)N(C)C)cc21`, the EC50 with HCV replicon lay in the range of 30 to 1000 nM. Further, at HCV NS5B, the concentration for half-maximal inhibition (IC50) is below 20 nM.

Take `COc1ccc2c(c1)C=C(C(=O)N(C)[C@H](C(=O)N1CCOCC1)C(C)C)Cn1c-2c(C2CCCCC2)c2ccc(C(=O)NS(=O)(=O)N(C)C)cc21`: the EC50 in the test on HCV replicon was in the range of 30 to 1000 nM. Further, at HCV NS5B, the IC50 was 20 to 1000 nM.

On to `COc1ccc2c(c1)C=C(C(=O)N(C)Cc1ccco1)Cn1c-2c(C2CCCCC2)c2ccc(C(=O)NS(=O)(=O)N(C)C)cc21`, for which the EC50 with HCV replicon lay within 30 to 1000 nM. At HCV NS5B, the IC50 is below 20 nM.

Turning to `COc1ccc2c(c1)C=C(C(=O)N(C)Cc1nccs1)Cn1c-2c(C2CCCCC2)c2ccc(C(=O)NS(=O)(=O)N(C)C)cc21`, in the test on HCV replicon, the EC50 fell in the range of 30 to 1000 nM. Moreover, the concentration for half-maximal inhibition (IC50) on HCV NS5B was below 20 nM.

For `COc1ccc2c(c1)C=C(C(=O)N(CC(=O)N(C)C)CC(=O)N(C)C)Cn1c-2c(C2CCCCC2)c2ccc(C(=O)NS(=O)(=O)N(C)C)cc21`, in the test on HCV replicon, the EC50 was in the range of 30 to 1000 nM. Moreover, the 50% inhibitory concentration (IC50) at HCV NS5B was below 20 nM.

On to `COc1ccc2c(c1)C=C(C(=O)N(C)[C@H](C)C(=O)O)Cn1c-2c(C2CCCCC2)c2ccc(C(=O)NS(=O)(=O)N(C)C)cc21`, for which the EC50 in the test on HCV replicon is 30 to 1000 nM. The IC50 at HCV NS5B lay in the range of 20 to 1000 nM.

For the compound `COC(=O)c1ccc2c(C3CCCCC3)c3n(c2c1)CC(C(=O)N1CCOC(CO)C1)=Cc1c(OC)cccc1-3` (stereo not shown), the EC50 in the test with HCV replicon is above 10000 nM. In addition, the half-maximal inhibitory concentration (IC50) on HCV NS5B is above 12500 nM.

Turning to `COc1cccc2c1C=C(C(=O)N1CCOC(CO)C1)Cn1c-2c(C2CCCCC2)c2ccc(C(=O)O)cc21` (stereo not shown), the EC50 with HCV replicon was in the range of 30 to 1000 nM. Further, the IC50 on HCV NS5B is 20 to 1000 nM.

With `COC(=O)c1ccc2c(C3CCCCC3)c3n(c2c1)CC(C(=O)N1C[C@@H](C)N[C@@H](C)C1)=Cc1c(OC)cccc1-3`, in the test on HCV replicon, the EC50 was above 370 nM. Besides, the IC50 on HCV NS5B is 20 to 1000 nM.

`COc1cccc2c1C=C(C(=O)N1C[C@@H](C)N[C@@H](C)C1)Cn1c-2c(C2CCCCC2)c2ccc(C(=O)O)cc21`: the EC50 with HCV replicon was in the range of 30 to 1000 nM. The IC50 at HCV NS5B was 20 to 1000 nM.

For `CN(C)C(=O)CN(C)C(=O)C1=Cc2ccccc2-c2c(C3CCCCC3)c3ccc(C(=O)Nc4ccccn4)cc3n2C1`, the EC50 with HCV replicon was 1000 to 10000 nM. The IC50 on HCV NS5B lay in the range of 20 to 1000 nM.

Consider `COc1ccc2c(c1)C=C(C(=O)N(C)CC(=O)N(C)C)Cn1c-2c(C2CCCCC2)c2ccc(C(=O)N(C)CC(=O)N(C)C)cc21`, for which the EC50 in the test with HCV replicon fell in the range of 1000 to 10000 nM. In addition, the IC50 on HCV NS5B is 20 to 1000 nM.

In the case of `COc1ccc2c(c1)C=C(C(=O)N1CC(NC(=O)OC(C)(C)C)C1)Cn1c-2c(C2CCCCC2)c2ccc(C(=O)NS(=O)(=O)N(C)C)cc21`, the EC50 with HCV replicon fell in the range of 30 to 1000 nM. The IC50 on HCV NS5B was 20 to 1000 nM.

For the compound `COc1ccc2c(c1)C=C(C(=O)N1CCN(CCO)CC1)Cn1c-2c(C2CCCCC2)c2ccc(C(=O)NS(=O)(=O)N(C)C)cc21`, in the test with HCV replicon, the EC50 lay in the range of 30 to 1000 nM. On HCV NS5B, the half-inhibitory concentration (IC50) fell in the range of 20 to 1000 nM.

Regarding `COc1ccc2c(c1)C=C(C(=O)N1CCC(CO)CC1)Cn1c-2c(C2CCCCC2)c2ccc(C(=O)NS(=O)(=O)N(C)C)cc21`, the EC50 in the test with HCV replicon lay in the range of 30 to 1000 nM. The IC50 at HCV NS5B lay in the range of 20 to 1000 nM.

Turning to `COc1ccc2c(c1)C=C(C(=O)N1CC(O)C1)Cn1c-2c(C2CCCCC2)c2ccc(C(=O)NS(=O)(=O)N(C)C)cc21`, the EC50 with HCV replicon was 30 to 1000 nM. In addition, the IC50 at HCV NS5B fell in the range of 20 to 1000 nM.

Turning to `COc1ccc2c(c1)C=C(C(=O)N1CC(OP(=O)(O)O)C1)Cn1c-2c(C2CCCCC2)c2ccc(C(=O)NS(=O)(=O)N(C)C)cc21`, the EC50 with HCV replicon lay within 1000 to 10000 nM. Further, at HCV NS5B, the half-inhibitory concentration (IC50) is 20 to 1000 nM.

Take `COc1ccc2c(c1)C=C(C(=O)N1CC(OP(=O)(OC(C)(C)C)OC(C)(C)C)C1)Cn1c-2c(C2CCCCC2)c2ccc(C(=O)NS(=O)(=O)N(C)C)cc21`: in the test on HCV replicon, the EC50 was in the range of 30 to 1000 nM. Moreover, the IC50 at HCV NS5B was in the range of 20 to 1000 nM.

In the case of `COc1ccc2c(c1)C=C(C(=O)N1CC(N)C1)Cn1c-2c(C2CCCCC2)c2ccc(C(=O)NS(=O)(=O)N(C)C)cc21`, the EC50 in the test with HCV replicon fell in the range of 30 to 1000 nM. In addition, the IC50 at HCV NS5B lay within 20 to 1000 nM.

For the compound `COc1ccc2c(c1)CC(C(=O)N1CCN(CCO)CC1)Cn1c-2c(C2CCCCC2)c2ccc(C(=O)NS(=O)(=O)N(C)C)cc21` (stereo not shown), the EC50 with HCV replicon lay within 30 to 1000 nM. Besides, the IC50 on HCV NS5B was 20 to 1000 nM.

As for `COc1ccc2c(c1)CC(C(=O)N1CCC(CO)CC1)Cn1c-2c(C2CCCCC2)c2ccc(C(=O)NS(=O)(=O)N(C)C)cc21` (stereo not shown), the EC50 in the test on HCV replicon fell in the range of 30 to 1000 nM. The IC50 on HCV NS5B lay within 20 to 1000 nM.

For the compound `COc1ccc2c(c1)C=C(C(=O)N1CC(CO)C1)Cn1c-2c(C2CCCCC2)c2ccc(C(=O)NS(=O)(=O)N(C)C)cc21`, the EC50 in the test on HCV replicon was 30 to 1000 nM. Further, the IC50 at HCV NS5B was in the range of 20 to 1000 nM.

As for `COc1ccc2c(c1)C=C(C(=O)N1CCN(C(=O)C3(O)CC3)CC1)Cn1c-2c(C2CCCCC2)c2ccc(C(=O)NS(=O)(=O)N(C)C)cc21`, the EC50 with HCV replicon is 30 to 1000 nM. The IC50 on HCV NS5B lay in the range of 20 to 1000 nM.

For `COc1ccc2c(c1)C=C(C(=O)N1CC(C(=O)N(C)C)C1)Cn1c-2c(C2CCCCC2)c2ccc(C(=O)NS(=O)(=O)N(C)C)cc21`, the EC50 in the test with HCV replicon was 30 to 1000 nM. Also, the IC50 at HCV NS5B lay within 20 to 1000 nM.

Consider `COc1ccc2c(c1)C=C(C(=O)N1CC(C(=O)N3CCOCC3)C1)Cn1c-2c(C2CCCCC2)c2ccc(C(=O)NS(=O)(=O)N(C)C)cc21`, for which the EC50 in the test with HCV replicon lay in the range of 30 to 1000 nM. In addition, the IC50 at HCV NS5B fell in the range of 20 to 1000 nM.

Consider `COc1ccc2c(c1)CC(C(=O)N1CCN(C(=O)C3(O)CC3)CC1)Cn1c-2c(C2CCCCC2)c2ccc(C(=O)NS(=O)(=O)N(C)C)cc21` (stereo not shown), for which the EC50 in the test on HCV replicon was 30 to 1000 nM. For the same compound, at HCV NS5B, the IC50 fell in the range of 20 to 1000 nM.

For `COc1ccc2c(c1)C=C(C(=O)N[C@@](C)(CO)C(=O)N(C)C)Cn1c-2c(C2CCCCC2)c2ccc(C(=O)NS(=O)(=O)N(C)C)cc21`, in the test on HCV replicon, the EC50 lay in the range of 30 to 1000 nM. In addition, the IC50 at HCV NS5B lay in the range of 20 to 1000 nM.

As to `COc1ccc2c(c1)C=C(C(=O)N1C[C@@H](C)O[C@@H](C)C1)Cn1c-2c(C2CCCCC2)c2ccc(C(=O)NS(=O)(=O)N3CCCC3)cc21`, in the test with HCV replicon, the half-maximal effective concentration (EC50) was 30 to 1000 nM. Besides, the IC50 at HCV NS5B was 20 to 1000 nM.

Take `COc1ccc2c(c1)C=C(C(=O)N1CCOCC1)Cn1c-2c(C2CCCCC2)c2ccc(C(=O)NS(=O)(=O)N3CCC3)cc21`: the EC50 in the test on HCV replicon is 30 to 1000 nM. Besides, the IC50 at HCV NS5B lay in the range of 20 to 1000 nM.

As to `COc1ccc2c(c1)C=C(C(=O)N1CCOCC1)Cn1c-2c(C2CCCCC2)c2ccc(C(=O)NS(=O)(=O)N3CCCC3)cc21`, the EC50 with HCV replicon is 30 to 1000 nM. The IC50 on HCV NS5B fell in the range of 20 to 1000 nM.

With `COc1ccc2c(c1)C=C(C(=O)N1C[C@@H](C)O[C@@H](C)C1)Cn1c-2c(C2CCCCC2)c2ccc(C(=O)NS(=O)(=O)N3CCC3)cc21`, the half-maximal effective concentration (EC50) in the test with HCV replicon was in the range of 30 to 1000 nM. Also, at HCV NS5B, the IC50 was in the range of 20 to 1000 nM.

Turning to `COc1ccc2c(c1)C=C(C(=O)N1CCOCC1)Cn1c-2c(C2CCCCC2)c2ccc(C(=O)NS(=O)(=O)c3ccc(C)cn3)cc21`, in the test with HCV replicon, the EC50 lay in the range of 30 to 1000 nM. Also, at HCV NS5B, the IC50 fell in the range of 20 to 1000 nM.

Turning to `COc1ccc2c(c1)C=C(C(=O)N1C[C@@H](C)O[C@@H](C)C1)Cn1c-2c(C2CCCCC2)c2ccc(C(=O)NS(=O)(=O)c3ccc(C)cn3)cc21`, in the test with HCV replicon, the EC50 was 30 to 1000 nM. The IC50 on HCV NS5B is 20 to 1000 nM.

In the case of `COC[C@H]1CN(C(=O)C2=Cc3cc(OC)ccc3-c3c(C4CCCCC4)c4ccc(C(=O)NS(=O)(=O)N(C)C)cc4n3C2)CCO1`, the EC50 in the test on HCV replicon lay within 30 to 1000 nM. For the same compound, on HCV NS5B, the IC50 lay within 20 to 1000 nM.

On to `COC[C@@H]1CN(C(=O)C2=Cc3cc(OC)ccc3-c3c(C4CCCCC4)c4ccc(C(=O)NS(=O)(=O)N(C)C)cc4n3C2)CCO1`, for which, in the test on HCV replicon, the EC50 was in the range of 30 to 1000 nM. The IC50 on HCV NS5B lay within 20 to 1000 nM.
